Measured values from patent US7135466B2 (Kirin Beer Kabushiki Kaisha, priority 1999, dated 2006).
Where two headings read alike, the source gives them in different places.

What was measured:
PDGF-Ra = target: T1, PDGF-Ra (Homo sapiens, UniProt P16234); assay: Inhibitory activity against PDGF-Ra phosphorylation by PDGF-AA stimulation using G292; type: cell-based; settings: for IC50: > means inhibition at indicated concentration not more than 50%, < and << not less than 50%, read-out: PDGF (E) IC50; for inhibition at 0.1 µM: G292, read-out: PDGF (E) inhibition (%) at 100 nM; for inhibition at 0.1 µM / PDGF (E) inhibition (%) at 100 nM: at 100 nM
T1 construct: host or cells: G-292 human osteosarcoma cells
Summary of the method: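 Phospho-PDGF-Ra ELISA: capture with PY-20 antiphosphotyrosine, detection with anti-PDGF-Ra and peroxidase secondary, read at 450 nm. Lysates came from G-292 osteosarcoma cells starved in 0.1% FBS, compound-treated 1 hr at 37° C, and stimulated with 50 ng/ml PDGF-AA for 5 min.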

c-kit = target: T2, c-kit (Homo sapiens, UniProt P10721); assay: Inhibitory activity against c-kit autophosphorylation (MO7e cells, h-SCF); type: cell-based; settings: for IC50: MO7e cells, read-out: c-kit IC50; for inhibition at 1 µM: Mo7e, at 1000 nM
T2 construct: MO7e (human megakaryocytic leukemia cell line) which had been arrested for 20 hr; endogenous in cells; host or cells: MO7e human megakaryocytic leukemia cell line
Summary of the method: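 MO7e cells, arrested for 20 hr, were pretreated with test compound in DMSO for 1 hr and then stimulated with 50 ng/ml h-SCF for 5 min before lysis. Lysates were captured on immobilized anti-phosphotyrosine PY-20, probed with anti-c-kit antibody and HRP anti-rabbit IgG, and read colorimetrically at 450 nm.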

[1] = figure within parentheses in >100( )
[2] = figure within parentheses in −( ) or >1000( )
[3] = figure in parentheses in >100( )

T1 sequence (P16234 24-1089): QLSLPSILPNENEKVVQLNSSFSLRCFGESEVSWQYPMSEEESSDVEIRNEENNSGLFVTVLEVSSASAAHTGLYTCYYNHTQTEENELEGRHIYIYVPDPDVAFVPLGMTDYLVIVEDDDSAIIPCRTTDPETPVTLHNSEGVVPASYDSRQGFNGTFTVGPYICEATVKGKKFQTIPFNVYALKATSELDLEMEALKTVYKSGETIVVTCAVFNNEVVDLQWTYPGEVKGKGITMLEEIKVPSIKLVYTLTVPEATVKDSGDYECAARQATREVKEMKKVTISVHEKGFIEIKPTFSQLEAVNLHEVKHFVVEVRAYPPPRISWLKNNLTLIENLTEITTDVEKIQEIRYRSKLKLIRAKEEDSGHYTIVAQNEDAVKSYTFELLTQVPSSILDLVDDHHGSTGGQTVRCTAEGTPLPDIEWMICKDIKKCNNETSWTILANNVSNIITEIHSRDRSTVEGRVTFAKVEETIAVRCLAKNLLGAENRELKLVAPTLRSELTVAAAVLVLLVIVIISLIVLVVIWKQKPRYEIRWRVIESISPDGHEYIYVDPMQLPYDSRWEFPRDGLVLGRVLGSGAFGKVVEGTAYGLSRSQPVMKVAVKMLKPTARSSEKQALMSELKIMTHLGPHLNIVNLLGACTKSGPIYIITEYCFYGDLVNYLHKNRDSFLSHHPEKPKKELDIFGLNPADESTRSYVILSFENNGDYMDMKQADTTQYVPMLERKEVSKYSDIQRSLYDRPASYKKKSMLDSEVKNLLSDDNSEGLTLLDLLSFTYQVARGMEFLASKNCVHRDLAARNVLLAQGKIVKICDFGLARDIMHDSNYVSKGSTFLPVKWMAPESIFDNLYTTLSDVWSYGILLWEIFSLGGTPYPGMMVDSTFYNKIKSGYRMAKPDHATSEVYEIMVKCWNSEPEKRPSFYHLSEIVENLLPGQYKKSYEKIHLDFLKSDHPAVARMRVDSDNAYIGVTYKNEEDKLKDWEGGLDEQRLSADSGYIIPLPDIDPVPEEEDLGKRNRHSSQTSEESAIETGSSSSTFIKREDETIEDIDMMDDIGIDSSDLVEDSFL
T2 sequence (P10721 26-976): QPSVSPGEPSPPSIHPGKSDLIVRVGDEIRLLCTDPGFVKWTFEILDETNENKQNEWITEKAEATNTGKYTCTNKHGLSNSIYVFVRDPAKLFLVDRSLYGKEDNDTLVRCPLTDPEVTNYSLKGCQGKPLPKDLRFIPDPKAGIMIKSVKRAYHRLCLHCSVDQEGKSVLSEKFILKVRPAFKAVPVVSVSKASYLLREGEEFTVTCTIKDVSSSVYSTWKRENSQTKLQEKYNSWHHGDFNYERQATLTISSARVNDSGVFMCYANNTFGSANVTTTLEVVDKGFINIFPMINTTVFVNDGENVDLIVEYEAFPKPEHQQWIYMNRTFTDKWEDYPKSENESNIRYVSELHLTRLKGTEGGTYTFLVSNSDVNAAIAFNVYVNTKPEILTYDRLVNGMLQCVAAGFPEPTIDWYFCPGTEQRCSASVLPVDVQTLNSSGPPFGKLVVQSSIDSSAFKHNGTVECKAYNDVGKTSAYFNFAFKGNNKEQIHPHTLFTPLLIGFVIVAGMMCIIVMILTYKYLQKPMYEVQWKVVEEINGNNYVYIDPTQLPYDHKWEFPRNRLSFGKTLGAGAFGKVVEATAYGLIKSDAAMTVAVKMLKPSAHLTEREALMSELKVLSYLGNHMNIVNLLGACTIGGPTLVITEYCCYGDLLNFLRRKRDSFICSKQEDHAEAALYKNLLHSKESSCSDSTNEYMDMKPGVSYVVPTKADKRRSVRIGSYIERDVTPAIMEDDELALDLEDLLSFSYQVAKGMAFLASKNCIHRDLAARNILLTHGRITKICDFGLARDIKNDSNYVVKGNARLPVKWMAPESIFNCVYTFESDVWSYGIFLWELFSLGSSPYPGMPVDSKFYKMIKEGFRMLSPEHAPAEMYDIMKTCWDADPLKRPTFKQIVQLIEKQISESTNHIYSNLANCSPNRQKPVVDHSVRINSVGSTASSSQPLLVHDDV

Row | SMILES | IC50 (PDGF-Ra; Pharmacological Test Example 1) [nM] | IC50 (c-kit; h-SCF 50 ng/ml) [nM] | IC50 (PDGF-Ra) [nM] | also measured
1 | COc1cc2ncnc(Oc3ccc(NC(=O)OCCCSc4ccc(Cl)cc4C)c(Cl)c3)c2cc1OC [Example 81, 3-[(4-Chloro-2-methylphenyl)sulfanyl]propyl N-{2-chloro-4-[(6,7-dimethoxy-4-quinazolinyl)oxy]phenyl}carbamate] | 12 | 408 | – | –
2 | CCCC(CCN1CCCCC1)OC(=O)Nc1ccc(Oc2ccnc3cc(OC)c(OC)cc23)cc1 (stereo not drawn) [Example 445, 1-(2-Piperidinoethyl)butyl N-{4-[(6,7-dimethoxy-4-quinolyl)oxy]phenyl}carbamate] | – | – | > 100 | inhibition at 0.1 µM (PDGF-Ra; [1]): 11%; IC50 (c-kit; 50 ng/ml h-SCF): 941 nM
3 | COc1cc2nccc(Oc3ccc(NC(=S)NC4CCN(Cc5ccccc5)CC4)c(C)c3C)c2cc1OC [Example 513, N-{4-[(6,7-Dimethoxy-4-quinolyl)oxy]-2,3-dimethylphenyl}-N′-[4-(N-benzyl)piperidinyl]thiourea] | – | – | > 100 | PDGF (E) inhibition (%) at 100 nM (PDGF-Ra; [1]): 28%; IC50 (c-kit; 50 ng/ml h-SCF): 720 nM
4 | CCN(C(=O)OC1CCCCC1)c1ccc(Oc2ncnc3cc(OC)c(OC)cc23)cc1Cl [Example 475, Cyclohexyl N-{2-chloro-4-[(6,7-dimethoxy-4-quinazolinyl)oxy]phenyl}-N-ethylcarbamate] | – | – | 15 | inhibition at 1 µM (c-kit; [2]): 24%
5 | COc1cccc(OC(=O)Nc2ccc(Oc3ccnc4cc(OC)c(OC)cc34)cc2)c1 [Example 214, 3-Methoxyphenyl N-{4-[(6,7-dimethoxy-4-quinolyl)oxy]phenyl}carbamate] | > 30 | 47 | – | PDGF (E) inhibition (%) in >30( ) (PDGF-Ra; figure in parentheses in >30( ), concentration not defined, presumably 30 nM): 6%
6 | COc1cc2ncnc(Oc3ccc(NC(=O)OC(C)c4ccccc4Cl)cc3)c2cc1OC (stereo not drawn) [Example 15, 1-(2-Chlorophenyl)ethyl N-{4-[(6,7-dimethoxy-4-quinazolinyl)oxy]phenyl}carbamate] | 21 | – | – | inhibition at 1 µM (c-kit; figure in parentheses in −( )): 48%
7 | COc1cc2nccc(Oc3ccc(NC(=S)NCCCN4CCN(C)CC4)c(C)c3C)c2cc1OC [Example 557, N-{4-[(6,7-Dimethoxy-4-quinolyl)oxy]-2,3-dimethylphenyl}-N′-[3-(4-methylpiperazinyl)propyl]thiourea] | – | – | > 100 | PDGF (E) inhibition (%) at 100 nM (PDGF-Ra; [1]): 33%; IC50 (c-kit; 50 ng/ml h-SCF): 634 nM
8 | COc1cc2nccc(Oc3ccc(NC(=O)NCCN4CCCCC4)cc3)c2cc1OC [Example 673, N-{4-[(6,7-Dimethoxy-4-quinolyl)oxy]phenyl}-N′-(2-piperidinoethyl)urea] | – | – | 15 | IC50 (c-kit; 50 ng/ml h-SCF): 426 nM
9 | COc1cc2nccc(Oc3ccc(NC(=S)NC(=O)c4ccc(C)s4)cc3F)c2cc1OC [Example 1040, N-{4-[(6,7-Dimethoxy-4-quinolyl)oxy]-3-fluorophenyl}-N′-[(5-methyl-2-thienyl)carbonyl]thiourea] | – | – | < 10 | IC50 (c-kit; h-SCF stimulation): 414 nM
10 | COc1cc2nccc(Oc3ccc(NC(=S)NC(=O)C(C)Oc4ccccc4Cl)cc3)c2cc1OC (stereo not drawn) [Example 763, N-[2-(2-Chlorophenoxy)propanoyl]-N′-{4-[(6,7-dimethoxy-4-quinolyl)oxy]phenyl}thiourea] | – | – | 13 | inhibition at 1 µM (c-kit; [2]): 39%
11 | COc1cc2ncnc(Oc3ccc(NC(=O)OCCc4cccc(C(F)(F)F)c4)c(Cl)c3)c2cc1OC [Example 86] | 13 | 842 | – | –
12 | COc1cc2nccc(Oc3ccc(NC(=S)NC(=O)c4cc(Cl)cc(Cl)c4)c(F)c3)c2cc1OC [Example 1122, N-(3,5-Dichlorobenzoyl)-N′-{4-[(6,7-dimethoxy-4-quinolyl)oxy]-2-fluorophenyl}thiourea] | – | – | > 100 | inhibition at 0.1 µM (PDGF-Ra; [3]): 48%; inhibition at 1 µM (c-kit; figure in parentheses in −( )): 26%
13 | COc1cc2nccc(Oc3ccc(NC(=S)NC(=O)c4ccc(C)cc4)c(Cl)c3)c2cc1OC [Example 1102, N-{2-Chloro-4-[(6,7-dimethoxy-4-quinolyl)oxy]phenyl}-N′-(4-methylbenzoyl)thiourea] | – | – | > 100 | inhibition at 0.1 µM (PDGF-Ra; [3]): 38%; inhibition at 1 µM (c-kit; figure in parentheses in −( )): 11%
14 | COc1cc2ncnc(Oc3ccc(NC(=O)OCCCOc4ccccc4Cl)c(C)c3C)c2cc1OC [Example 211, 3-(2-Chlorophenoxy)propyl N-{4-[(6,7-dimethoxy-4-quinazolinyl)oxy]-2,3-dimethylphenyl}-carbamate] | 17 | 43 | – | –
15 | CCN(CC)CCCOC(=O)Nc1ccc(Oc2ncnc3cc(OC)c(OC)cc23)cc1 [Example 429, 3-(Diethylamino)propyl N-{4-[(6,7-dimethoxy-4-quinazolinyl)oxy]phenyl}carbamate] | – | – | 54 | IC50 (c-kit; 50 ng/ml h-SCF): 603 nM
16 | COc1cc2nccc(Oc3ccc(NC(=O)OCCCSc4ccc(C)cc4)c(C)c3C)c2cc1OC [Example 38] | < 10 | 33 | – | –

Row | SMILES | IC50 (PDGF-Ra; Pharmacological Test Example 1) [nM] | IC50 (c-kit; h-SCF 50 ng/ml) [nM] | IC50 (PDGF-Ra) [nM] | also measured
17 | COc1cc2nccc(Oc3ccc(NC(=O)NC4CCN(Cc5ccccc5)CC4)cc3C)c2cc1OC [Example 642, N-(1-Benzyl-4-piperidyl)-N′-{4-[(6,7-dimethoxy-4-quinolyl)oxy]-3-methylphenyl}urea] | – | – | > 100 | inhibition at 0.1 µM (PDGF-Ra; [1]): 20%; inhibition at 1 µM (c-kit; [2]): 8%
18 | COc1cc2ncnc(Oc3ccc(NC(=S)NC(=O)Cc4cccc5ccccc45)cc3)c2cc1OC [Example 709, N-{4-[(6,7-Dimethoxy-4-quinazolinyl)oxy]phenyl}-N′-[2-(1-naphthyl)acetyl]thiourea] | – | – | 19 | inhibition at 1 µM (c-kit; [2]): 19%
19 | COc1cc2nccc(Oc3cc(C)c(NC(=O)OCc4ccccc4C)cc3C)c2cc1OC [Example 245, 2-Methylbenzyl N-{4-[(6,7-dimethoxy-4-quinolyl)oxy]-2,5-dimethylphenyl}carbamate] | 16 | 408 | – | –
20 | COc1cc2ncnc(Oc3ccc(NC(=O)NC4CCN(CC5CCCCC5)C4)cc3)c2cc1OC (stereo not drawn) [Example 586, N-[1-(Cyclohexylmethyl)tetrahydro-1H-3-pyrrolyl]-N′-{4-[(6,7-dimethoxy-4-quinazolinyl)oxy]phenyl}urea] | – | – | 63 | IC50 (c-kit; 50 ng/ml h-SCF): 734 nM
21 | COc1cc2nccc(Oc3cc(C)c(NC(=O)OCCCSc4ccc(Cl)cc4C)cc3C)c2cc1OC [Example 79, 3-[(4-Chloro-2-methylphenyl)sulfanyl]propyl N-{4-[(6,7-dimethoxy-4-quinolyl)oxy]-2,5-dimethylphenyl}carbamate] | 18 | 123 | – | –
22 | CCCCOc1ccc(C(=O)NC(=S)Nc2ccc(Oc3ccnc4cc(OC)c(OC)cc34)cc2)cc1 [Example 751, N-(4-Butoxybenzoyl)-N′-{4-[(6,7-dimethoxy-4-quinolyl)oxy]phenyl}thiourea] | – | – | 70 | inhibition at 1 µM (c-kit; [2]): 23%
23 | COc1cc2nccc(Oc3ccc(NC(=O)OCCCSc4ccc(Cl)cc4C)c(C)c3C)c2cc1OC [Example 78, 3-[(4-Chloro-2-methylphenyl)sulfanyl]propyl N-{4-[(6,7-dimethoxy-4-quinolyl)oxy]-2,3-dimethylphenyl}carbamate] | 16 | 129 | – | –
24 | COc1cc2nccc(Oc3ccc(NC(=O)Sc4ccc(Cl)cc4C)c(C)c3C)c2cc1OC [Example 177, 4-Chloro-2-methylphenyl{4-[(6,7-dimethoxy-4-quinolyl)oxy]-2,3-dimethylanilino}methanethioate] | 19 | < 30 | – | –
25 | COc1cc2nccc(Oc3ccc(NC(=S)NC(=O)C4CC4C)cc3Cl)c2cc1OC (stereo not drawn) [Example 1190, N-{3-Chloro-4-[(6,7-dimethoxy-4-quinolyl)oxy]phenyl}-N′-[(2-methylcyclopropyl)carbonyl]thiourea] | – | – | 24 | IC50 (c-kit; h-SCF stimulation): 240 nM
26 | COc1cc2nccc(Oc3ccc(NC(=O)OCc4ccccc4C)c(C)c3C)c2cc1OC [Example 232, 2-Methylbenzyl N-{4-[(6,7-dimethoxy-4-quinolyl)oxy]-2,3-dimethylphenyl}carbamate] | 11 | 42 | – | –
27 | COc1cc2nccc(Oc3ccc(NC(=O)NCCN(C(C)C)C(C)C)c([N+](=O)[O-])c3)c2cc1OC [Example 658, N-[2-(Diisopropylamino)ethyl]-N′-{4-[(6,7-dimethoxy-4-quinolyl)oxy]-2-nitrophenyl}urea] | – | – | 19 | IC50 (c-kit; 50 ng/ml h-SCF): 389 nM
28 | COc1cc2nccc(Oc3ccc(NC(=O)OC(C)c4cccc(F)c4)cc3)c2cc1OC (stereo not drawn) [Example 97, 1-(3-Fluorophenyl)ethyl N-{4-[(6,7-dimethoxy-4-quinolyl)oxy]phenyl}carbamate] | < 10 | 254 | – | –
29 | COc1cc2ncnc(Oc3ccc(NC(=O)OCc4ccc(F)cc4)c(Cl)c3)c2cc1OC [Example 12, 4-Fuorobenzyl N-{2-chloro-4-[(6,7-dimethoxy-4-quinazolinyl)oxy]phenyl}carbamate] | 11 | 389 | – | –
30 | CCCC(CCN(CC)CC)OC(=O)Nc1ccc(Oc2ncnc3cc(OC)c(OC)cc23)cc1 (stereo not drawn) [Example 444, 1-[2-(Diethylamino)ethyl]butyl N-{4-[(6,7-dimethoxy-4-quinazolinyl)oxy]phenyl}carbamate] | – | – | 21 | IC50 (c-kit; 50 ng/ml h-SCF): 972 nM
31 | COc1cc2ncnc(Oc3ccc(NC(=O)OCCCOc4ccccc4Cl)cc3)c2cc1OC [Example 19, 3-(2-Chlorophenoxy)propyl N-{4-[(6,7-dimethoxy-4-quinazolinyl)oxy]phenyl}carbamate] | < 10 | 41 | – | –
